In US20070004636A1, “Method of degrading transcriptional factors of saccharometabolism-associated gene, method for inhibiting the degradation, and agent for inhibiting degradation and degradation inhibitor” (priority 2002, published 2007):

What was measured:
Type in all cases: cell-based
[1] = tested on: human HNF-1α; assay: intracellular HNF-1α degradation test by adding calcium ionophore, HEK293T cells; settings: 10 μg/mL, 4 hours
Experimental: After culturing a total number of 0.8×10^6 HEK293T cells for 5 hours at 37° C. under the presence of 5% CO2 (Petri dish with 60 mm diameter), 2 μg of an HNF-1α expression plasmid (see Example 7) was transfected thereto using the FuGENE 6 Transfection Reagent. After two days of culturing, the culture medium was replaced with a medium containing 10 μg/mL of ionophore A23187 (Sigma Chemical Co.) and 0.2% DMSO, and then the culturing was continued for 4 hours. For a negative control group, the culture medium was replaced with a medium containing 0.2% DMSO. After culturing for the pre-determined time, the cells were washed with cold PBS (−), suspended in 350 μl of hypotonic cell lysis buffer, and then left to stand on ice for 20 mins. The cells were disrupted with a homogenizer, and then centrifuged at 4° C. for 10 minutes at 600 g to collect the resulting supernatant as a cytoplasmic fraction and the precipitation as a nuclear fraction. The nuclear fraction was further suspended in solution comprising 2×PBS/1% Nonidet P-40/0.1% SDS, and disrupted by ultrasonication. The protein concentration of cell fractions was determined with Coomassie Plus Protein Assay Reagent Kit (Pierce Chemical Corp.). Each of the prepared samples was added to an equal volume of 2×SDS sample buffer, heated for 5 minutes, and then subjected to 5-20% SDS-PAGE for separation. […]

[2] = tested on: human HNF-4α; assay: intracellular HNF-4α degradation test by adding calcium ionophore, HEK293T cells; settings: 10 μg/mL, 3 hours, nuclear and cytoplasmic fraction
Experimental: After culturing a total number of 0.7×10^6 HEK293T cells for 22 hours at 37° C. under the presence of 5% CO2 (Petri dish with 60 mm diameter), 2 μg of HNF-4α expression plasmid (see Example 2) was transfected thereto using the FuGENE 6 Transfection Reagent. After two days of culturing, the culture medium was replaced with a medium that contained 10 μg/mL of ionophore A23187 (4-bromo-calcium ionophore A23187, Sigma Chemical Co.), and the culturing was continued for 3 hours. For a negative control group, the culture medium was replaced with a medium to which dimethylsulfoxide (DMSO) was added instead of the ionophore. After culturing for the pre-determined time, the cells were washed with cold PBS (−), suspended in 300 μl of hypotonic cell lysis buffer (10 mM HEPES, pH 7.5/10 mM MgCl2/42 mM KCl/1 mM PMSF), and left to stand on ice for 20 mins. The cells were disrupted with a homogenizer, and then centrifuged at 4° C. for 10 minutes at 600 g, to collect the resulting supernatant as a cytoplasmic fraction and the precipitation as a nuclear fraction. The nuclear fraction was further suspended in solution comprising 2×PBS/1% Nonidet P-40/0.1% SDS, and disrupted by ultrasonication. An equal volume of 2×SDS sample buffer was added thereto, heated for 5 minutes, and then subjected to 5-20% SDS-PAGE for separation. Detection of HNF-4α was conducted by the same method as in Example 4.

[3] = tested on: human IPF-1; assay: intracellular IPF-1 degradation test by adding calcium ionophore, HEK293T cells; settings: 10 μg/mL, 4 hours
Experimental: After culturing a total number of 0.5×10^6 HEK293T cells for 24 hours at 37° C. under the presence of 5% CO2 (Petri dish with 60 mm diameter), 2 μg of IPF-1 expression plasmid (see Example 10) was transfected thereto using the FuGENE 6 Transfection Reagent. After two days of culturing, the culture medium was replaced with a medium containing 10 μg/mL of ionophore A23187 (Sigma Chemical Co.), and the culturing was continued for further 4 hours. For a negative control group, the culture medium was replaced with a medium containing 0.2% DMSO. After culturing for the pre-determined time, the cells were washed with cold PBS (−), suspended in 350 μl of hypotonic cell lysis buffer, and then left to stand on ice for 20 mins. The cells were disrupted with a homogenizer, and then centrifuged at 4° C. for 10 minutes at 600 g to collect the supernatant as a cytoplasmic fraction and the precipitation as a nuclear fraction. The nuclear fraction was further suspended in solution comprising 2×PBS/1% Nonidet P40/0.1% SDS, and disrupted by ultrasonication. The nuclear fraction and cell fraction were added to an equal volume of 2×SDS sample buffer, heated for 5 minutes, and then subjected to 5-20% SDS-PAGE for separation. Detection of IPF-1 was conducted by the same method as in Example 10.

4-bromo-calcium ionophore A23187
observed: degradation of HNF-1α by addition of ionophore [1] | degradation of HNF-4α by adding ionophore [2] | degradation of IPF-1 by addition of ionophore [3]
